According to patent EP0504335B1, “A FIBRONECTIN BINDING PEPTIDE” (priority 1990, dated 1997):
Peptide text beside a SMILES is read from it.

Columns and labels:
Human fibronectin = type: binding; settings: for IC50: read-out: concentration eliciting a 50% inhibition of fibronectin binding
Trypanosoma cruzi = settings: Ouaissi et al., 1986; cited from earlier work
Treponema palladium = settings: Thomas et al., 1985b; cited from earlier work
spirochetes = settings: cited from earlier work

Compound	inhibitory activity (inhibition of ^125I-HFN binding to S. aureus 8325-4), in words (Human fibronectin)	IC50 (Human fibronectin) [µM]	further results
CC(C)[C@H](NC(=O)[C@H](CO)NC(=O)[C@H](CC(N)=O)NC(=O)[C@H](Cc1c[nH]cn1)NC(=O)CNC(=O)CNC(=O)[C@H](Cc1ccccc1)NC(=O)[C@H](CCC(N)=O)NC(=O)[C@H](Cc1ccc(O)cc1)NC(=O)[C@H](CO)NC(=O)[C@@H]1CCCN1)C(=O)N[C@@H](CC(=O)O)C(=O)N[C@@H](Cc1ccccc1)C(=O)N[C@@H](CCC(=O)O)C(=O)N[C@@H](CCC(=O)O)C(=O)N[C@@H](CC(=O)O)C(=O)N[C@H](C(=O)O)[C@@H](C)O [Peptide S17-33] (H-PSYQFGGHNSVDFEEDT-OH)	dramatic recovery of activity	100	–
CC(C)C[C@H](NC(=O)[C@@H](NC(=O)[C@H](CC(=O)O)NC(=O)[C@H](CCC(=O)O)NC(=O)[C@H](CCC(=O)O)NC(=O)[C@H](Cc1ccccc1)NC(=O)[C@H](CC(=O)O)NC(=O)[C@@H](NC(=O)[C@H](CO)NC(=O)[C@H](CC(N)=O)NC(=O)[C@H](Cc1c[nH]cn1)NC(=O)CNC(=O)CNC(=O)[C@H](Cc1ccccc1)NC(=O)[C@@H](N)CCC(N)=O)C(C)C)[C@@H](C)O)C(=O)N1CCC[C@H]1C(=O)N[C@@H](CCCCN)C(=O)O [Peptide S20-36] (H-QFGGHNSVDFEEDTLPK-OH)	–	200	–
CC(C)C[C@H](NC(=O)[C@@H](NC(=O)[C@H](CC(=O)O)NC(=O)[C@H](CCC(=O)O)NC(=O)[C@H](CCC(=O)O)NC(=O)[C@H](Cc1ccccc1)NC(=O)[C@H](CC(=O)O)NC(=O)[C@@H](NC(=O)[C@H](CO)NC(=O)[C@H](CC(N)=O)NC(=O)[C@H](Cc1c[nH]cn1)NC(=O)CNC(=O)CNC(=O)[C@@H](N)Cc1ccccc1)C(C)C)[C@@H](C)O)C(=O)N1CCC[C@H]1C(=O)N[C@@H](CCCCN)C(=O)O [Peptide S21-36] (H-FGGHNSVDFEEDTLPK-OH)	–	–	fold less effective than S20-36 (Human fibronectin): about 10 fold
CC[C@H](C)[C@H](NC(=O)[C@H](CCC(=O)O)NC(=O)[C@@H](NC(=O)[C@H](Cc1c[nH]cn1)NC(=O)[C@H](CCCCN)NC(=O)[C@H](CC(N)=O)NC(=O)[C@@H](N)Cc1ccccc1)[C@@H](C)O)C(=O)N[C@H](C(=O)N[C@@H](CCC(=O)O)C(=O)N[C@@H](CCC(=O)O)C(=O)N[C@@H](CC(=O)O)C(=O)N[C@H](C(=O)N[C@@H](CC(N)=O)C(=O)N[C@@H](CCCCN)C(=O)N[C@@H](CC(=O)O)C(=O)N[C@@H](CCCCN)C(=O)N1CCC[C@H]1C(=O)N[C@@H](CO)C(=O)N[C@@H](Cc1ccc(O)cc1)C(=O)N[C@@H](CCC(N)=O)C(=O)N[C@@H](Cc1ccccc1)C(=O)NCC(=O)NCC(=O)N[C@@H](Cc1c[nH]cn1)C(=O)N[C@@H](CC(N)=O)C(=O)N[C@@H](CO)C(=O)N[C@H](C(=O)N[C@@H](CC(=O)O)C(=O)N[C@@H](Cc1ccccc1)C(=O)N[C@@H](CCC(=O)O)C(=O)N[C@@H](CCC(=O)O)C(=O)N[C@@H](CC(=O)O)C(=O)N[C@H](C(=O)N[C@@H](CC(C)C)C(=O)N1CCC[C@H]1C(=O)N[C@@H](CCCCN)C(=O)N[C@H](C(=O)O)C(C)C)[C@@H](C)O)C(C)C)[C@@H](C)O)[C@@H](C)CC [Peptide D3] (H-FNKHTEIIEEDTNKDKPSYQFGGHNSVDFEEDTLPKV-OH)	effective inhibitors	–	–
RGDS	–	–	binding of fibronectin to Trypanosoma cruzi, in words (Trypanosoma cruzi): prevented; binding of fibronectin to Treponema palladium, in words (Treponema palladium): prevented; attachment of spirochetes to cultured human cells, in words (spirochetes): blocked
CC(C)C[C@H](NC(=O)[C@@H](NC(=O)[C@H](CC(=O)O)NC(=O)[C@H](CCC(=O)O)NC(=O)[C@H](CCC(=O)O)NC(=O)[C@H](Cc1ccccc1)NC(=O)[C@H](CC(=O)O)NC(=O)[C@@H](NC(=O)[C@H](CO)NC(=O)[C@H](CC(N)=O)NC(=O)[C@H](Cc1c[nH]cn1)NC(=O)CNC(=O)CNC(=O)[C@H](Cc1ccccc1)NC(=O)[C@H](CCC(N)=O)NC(=O)[C@H](Cc1ccc(O)cc1)NC(=O)[C@H](CO)NC(=O)[C@@H]1CCCN1C(=O)[C@@H](N)CCCCN)C(C)C)[C@@H](C)O)C(=O)N1CCC[C@H]1C(=O)N[C@@H](CCCCN)C(=O)O [Peptide S16-36] (H-KPSYQFGGHNSVDFEEDTLPK-OH)	–	10	–
